Active and inactive are the calls of the source. The rule behind the calls is not given here.

The values that follow come from ChEMBL document CHEMBL2086254, “Synthesis and identification of novel indolo[2,3-a]pyrimido[5,4-c]carbazoles as a new class of anti-cancer agents” (Eur J Med Chem, 2012).

Assay [1] relates to BT-549. Briefly: Cytotoxicity against human BT549 cells assessed as cell growth at 10 uM after 48 hrs by SRB assay relative to control. The assay is classed as functional. The conditions noted are these: BT-549, 48 h, read-out: Activity. For orientation: Sulforhodamine B stains cellular protein and so reports cell mass.
Assay [2] relates to MDA-MB-468. Briefly: Cytotoxicity against human MDA-MB-468 cells assessed as cell growth at 10 uM after 48 hrs by SRB assay relative to control. The assay is classed as functional. The conditions noted are these: MDA-MB-468, 48 h, read-out: Activity.
For assay [3], the system named is OVCAR-5. Nature of the assay: Cytotoxicity against human OVCAR5 cells assessed as cell growth at 10 uM after 48 hrs by SRB assay relative to control. The assay is classed as functional. The settings on record: OVCAR-5, 48 h, read-out: Activity.
Assay [4] concerns SN12C. Nature of the assay: Cytotoxicity against human SN12C cells assessed as cell growth at 10 uM after 48 hrs by SRB assay relative to control. The format is functional. The settings on record: read-out: Activity.
Assay [5] deals with DNA topoisomerase 2-alpha (Homo sapiens) (UniProt P11388). Briefly: Inhibition of human DNA topoisomerase 2 at 100 uM after 1 hr by agarose gel circular DNA decatenation assay.
Chain of DNA topoisomerase 2-alpha (Homo sapiens) (P11388 whole entry): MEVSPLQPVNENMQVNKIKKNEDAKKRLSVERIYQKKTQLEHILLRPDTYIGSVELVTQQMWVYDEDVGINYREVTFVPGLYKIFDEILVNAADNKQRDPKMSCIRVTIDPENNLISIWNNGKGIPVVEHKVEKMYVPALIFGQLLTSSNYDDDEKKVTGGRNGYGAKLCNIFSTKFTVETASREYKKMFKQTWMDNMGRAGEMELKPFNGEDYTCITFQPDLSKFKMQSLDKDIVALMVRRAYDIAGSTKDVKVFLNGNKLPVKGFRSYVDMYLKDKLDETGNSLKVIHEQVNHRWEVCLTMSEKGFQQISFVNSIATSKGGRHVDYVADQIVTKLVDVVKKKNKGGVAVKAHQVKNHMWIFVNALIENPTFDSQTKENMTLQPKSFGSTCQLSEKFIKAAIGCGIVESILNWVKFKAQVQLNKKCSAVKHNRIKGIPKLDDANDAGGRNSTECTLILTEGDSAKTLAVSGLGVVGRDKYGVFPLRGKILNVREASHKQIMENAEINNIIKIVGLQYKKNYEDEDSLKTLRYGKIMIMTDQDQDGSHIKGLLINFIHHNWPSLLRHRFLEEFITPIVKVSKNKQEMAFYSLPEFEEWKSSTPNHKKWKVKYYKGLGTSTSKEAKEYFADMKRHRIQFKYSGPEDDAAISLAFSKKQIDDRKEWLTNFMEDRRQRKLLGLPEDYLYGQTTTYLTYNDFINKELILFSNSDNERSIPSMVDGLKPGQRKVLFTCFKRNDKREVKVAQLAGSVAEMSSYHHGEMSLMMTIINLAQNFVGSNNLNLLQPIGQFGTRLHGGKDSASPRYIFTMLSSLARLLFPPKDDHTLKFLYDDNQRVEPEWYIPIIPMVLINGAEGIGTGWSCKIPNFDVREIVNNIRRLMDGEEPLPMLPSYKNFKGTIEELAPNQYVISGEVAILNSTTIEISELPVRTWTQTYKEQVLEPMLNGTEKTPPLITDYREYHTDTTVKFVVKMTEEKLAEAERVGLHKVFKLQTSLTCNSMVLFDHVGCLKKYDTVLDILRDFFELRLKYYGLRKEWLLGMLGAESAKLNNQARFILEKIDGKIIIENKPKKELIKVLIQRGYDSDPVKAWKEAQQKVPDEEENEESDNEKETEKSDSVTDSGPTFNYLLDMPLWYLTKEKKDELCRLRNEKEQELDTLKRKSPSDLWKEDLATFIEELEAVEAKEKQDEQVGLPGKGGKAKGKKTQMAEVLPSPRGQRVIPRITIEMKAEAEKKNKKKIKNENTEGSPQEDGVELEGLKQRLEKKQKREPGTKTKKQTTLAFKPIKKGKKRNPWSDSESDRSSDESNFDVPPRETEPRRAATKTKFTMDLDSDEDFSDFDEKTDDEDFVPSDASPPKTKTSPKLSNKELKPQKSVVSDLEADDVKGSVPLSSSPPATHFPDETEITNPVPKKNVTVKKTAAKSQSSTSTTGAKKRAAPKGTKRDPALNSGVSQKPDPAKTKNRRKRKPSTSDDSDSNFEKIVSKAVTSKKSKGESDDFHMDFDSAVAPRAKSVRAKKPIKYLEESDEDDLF
Assay [6] has as its system IGROV-1. Nature of the assay: Cytotoxicity against human IGROV1 cells assessed as cell growth at 10 uM after 48 hrs by SRB assay relative to control. The assay is classed as functional. The settings on record: IGROV-1, 48 h, read-out: Activity.
The test system of assay [7] is CAKI-1. Nature of the assay: Cytotoxicity against human Caki1 cells assessed as cell growth at 10 uM after 48 hrs by SRB assay relative to control. The format is functional. The settings on record: CAKI-1, 48 h, read-out: Activity.
The test system of assay [8] is UO-31. Nature of the assay: Cytotoxicity against human UO31 cells assessed as cell growth at 10 uM after 48 hrs by SRB assay relative to control. The settings on record: UO-31, 48 h, read-out: Activity. The assay is classed as functional.
Assay [9] has as its system MCF7. Briefly: Cytotoxicity against human MCF7 cells assessed as cell growth at 10 uM after 48 hrs by SRB assay relative to control. The format is functional. The conditions noted are these: MCF7, 48 h, read-out: Activity.
Assay [10] has as its system CCRF-CEM. Briefly: Cytotoxicity against human CCRF-CEM cells assessed as cell growth at 10 uM after 48 hrs by SRB assay relative to control. The assay is classed as functional. The settings on record: read-out: Activity.
In assay [11] the test system is HL-60. Briefly: Cytotoxicity against human HL60 cells assessed as cell growth at 10 uM after 48 hrs by SRB assay relative to control. The format is functional. The settings on record: HL-60, 48 h, read-out: Activity.
Assay [12] concerns HT-29. Nature of the assay: Cytotoxicity against human HT-29 cells assessed as cell growth at 10 uM after 48 hrs by SRB assay relative to control. The settings on record: HT-29, 48 h, read-out: Activity. The format is functional.
For assay [13], the system named is KM12. Nature of the assay: Cytotoxicity against human KM12 cells assessed as cell growth at 10 uM after 48 hrs by SRB assay relative to control. The format is functional. The conditions noted are these: KM12, 48 h, read-out: Activity.
The subject of assay [14] is SR. Briefly: Cytotoxicity against human SR cells assessed as cell growth at 10 uM after 48 hrs by SRB assay relative to control. The format is functional. The settings on record: read-out: Activity.
In assay [15] the test system is MOLT-4. Briefly: Cytotoxicity against human MOLT4 cells assessed as cell growth at 10 uM after 48 hrs by SRB assay relative to control. The assay is classed as functional. The settings on record: MOLT-4, 48 h, read-out: Activity.
Assay [16] concerns HOP-62. Nature of the assay: Cytotoxicity against human HOP62 cells assessed as cell growth at 10 uM after 48 hrs by SRB assay relative to control. The format is functional. The conditions noted are these: HOP-62, 48 h, read-out: Activity.
The test system of assay [17] is NCI-H322M. Nature of the assay: Cytotoxicity against human NCI-H322M cells assessed as cell growth at 10 uM after 48 hrs by SRB assay relative to control. The conditions noted are these: read-out: Activity. The assay is classed as functional.
The subject of assay [18] is COLO 205. Nature of the assay: Cytotoxicity against human COLO205 cells assessed as cell growth at 10 uM after 48 hrs by SRB assay relative to control. The settings on record: COLO 205, 48 h, read-out: Activity. The format is functional.
In assay [19] the test system is HCT-15. Briefly: Cytotoxicity against human HCT15 cells assessed as cell growth at 10 uM after 48 hrs by SRB assay relative to control. The conditions noted are these: HCT-15, 48 h, read-out: Activity. The assay is classed as functional.
Assay [20] concerns SF-539. Nature of the assay: Cytotoxicity against human SF539 cells assessed as cell growth at 10 uM after 48 hrs by SRB assay relative to control. The assay is classed as functional. The settings on record: SF-539, 48 h, read-out: Activity.
The subject of assay [21] is LOX IMVI. Nature of the assay: Cytotoxicity against human LOXIMVI cells assessed as cell growth at 10 uM after 48 hrs by SRB assay relative to control. The conditions noted are these: read-out: Activity. The assay is classed as functional.
For assay [22], the system named is OVCAR-4. Briefly: Cytotoxicity against human OVCAR4 cells assessed as cell growth at 10 uM after 48 hrs by SRB assay relative to control. The conditions noted are these: OVCAR-4, 48 h, read-out: Activity. The assay is classed as functional.
The test system of assay [23] is MDA-MB-231. Briefly: Cytotoxicity against human MDA-MB-231 cells assessed as cell growth at 10 uM after 48 hrs by SRB assay relative to control. The format is functional. The settings on record: MDA-MB-231, 48 h, read-out: Activity.
Assay [24] relates to OVCAR-3. Briefly: Cytotoxicity against human OVCAR3 cells assessed as cell growth at 10 uM after 48 hrs by SRB assay relative to control. The assay is classed as functional. The conditions noted are these: OVCAR-3, 48 h, read-out: Activity.
In assay [25] the test system is 786-0. Briefly: Cytotoxicity against human 786-0 cells assessed as cell growth at 10 uM after 48 hrs by SRB assay relative to control. The assay is classed as functional. The conditions noted are these: 786-0, 48 h, read-out: Activity.

On to `Cn1cc(-c2[nH]c(=S)[nH]c(=O)c2-c2cn(C)c3ccccc23)c2ccccc21`, for which the growth at 10 µM in [1] is 102%; in assay [2], 107%; in [3] it was 107%; in assay [4] it was 103%; in assay [6], 75.7%; in assay [7], 82.4%. In addition, the growth at 10 µM came out at 75.8% in assay [8]; 68.2% in assay [9]; 99% in assay [10]; 104% in [11]; 112% in assay [12]; 97.9% in [13]. The growth at 10 µM in assay [14] is 93.9%; in [15], 103%; in assay [16], 92.3%; in assay [17], 96.5%; in [18] it was 100%; in assay [19] it was 95.2%. Further, the growth at 10 µM is 99.1% in assay [20]; 92.2% in assay [21]; 103% in assay [22]; 91.7% in assay [23]; 98.7% in assay [24]; 107% in [25]. The inhibition result in assay [5] was “inactive”.
Consider `Cn1c2ccccc2c2c3c(=O)[nH]c(N)nc3c3c4cccnc4n(C)c3c21`, for which the growth at 10 µM in assay [1] worked out at 66%; in assay [2] it was 75.1%; in assay [3], 98.8%; in assay [4], 91%; in assay [6], 94.2%; in [7], 60.1%. For the same compound, the growth at 10 µM worked out at 39.4% in assay [8]; 45.2% in [9]; 65.3% in assay [10]; 72.8% in assay [11]; 78% in assay [12]; 59% in [13]. The growth at 10 µM in assay [14] is 63.3%; in assay [15], 74.4%; in assay [16], 84.1%; in [19], 67.4%; in [20], 111%; in assay [21], 66%. Also, the figures for the growth at 10 µM in assay [22], in assay [23] and in [24] were 80.1%, 79.4% and 98.2%, respectively. Also, in assay [5], the inhibition entry is “inactive”.
On to `Cn1cc(-c2c(-c3cn(C)c4ncccc34)nc(N)[nH]c2=O)c2ccccc21`, for which the growth at 10 µM in assay [1] came out at 95.8%; in assay [2], 116%; in assay [3], 106%; in assay [4], 104%; in assay [6], 87.1%; in assay [7] it was 90%. For the same compound, the growth at 10 µM is 79% in assay [8]; 86% in [9]; 92.5% in assay [10]; 105% in assay [11]; 98.5% in assay [12]; 102% in assay [13]. Further, the growth at 10 µM in assay [14] was found to be 90.4%; in assay [15], 97.1%; in assay [16], 91.5%; in [17], 95.3%; in assay [18], 106%; in assay [19], 103%. The growth at 10 µM is 104% in [20]; 99.9% in [21]; 88% in assay [22]; 96.4% in assay [23]; 99.7% in assay [24]; 106% in assay [25].
For the compound `Cn1cc(-c2nc(N)[nH]c(=O)c2-c2cn(C)c3ccccc23)c2ccccc21`, the growth at 10 µM worked out at 102% in assay [1]; 106% in assay [2]; 68.9% in assay [6]; 94.6% in assay [7]; 64.6% in assay [8]; 77.6% in [9]. Moreover, the growth at 10 µM was 103% in assay [11]; 94.3% in [12]; 103% in assay [13]; 110% in [14]; 105% in assay [15]; 85.3% in assay [16]. For the same compound, the growth at 10 µM amounted to 88.6% in [17]; 104% in [18]; 117% in [19]; 141% in [20]; 118% in assay [21]; 105% in assay [23]. Moreover, the growth at 10 µM in [24] is 109%; in assay [25] it was 122%. In [5], the inhibition entry is “inactive”.
On to `Cn1cc(-c2[nH]c(=O)[nH]c(=O)c2-c2cn(C)c3ccccc23)c2ccccc21`, for which the growth at 10 µM is 95.8% in assay [1]; 88.5% in assay [2]; 110% in assay [4]; 62.2% in assay [6]; 68.6% in [7]; 75.8% in [8]. Besides, the growth at 10 µM in assay [9] amounted to 60.1%; in assay [10], 87.6%; in assay [13] it was 93.3%; in assay [16] it was 83.3%; in [17], 105%; in [18], 96.3%. Also, the growth at 10 µM was 95% in assay [19]; 111% in assay [20]; 104% in [21]; 97.3% in assay [24]; 111% in assay [25]. In addition, the inhibition entry in [5] was “inactive”.
